Drawing on US20260198495A1, “BINARY INSECTICIDE COMPOSITION AND USE THEREOF” (SHENYANG SINOCHEM AGROCHEMICALS R & D CO., LTD., priority 2022, published 2026), this text covers LC50 for one compound.

For this data set, the system named is adult Tetranychus urticae Koch. Briefly: Joint toxicity of I-72 + cyetpyrafen, Example 85, Table 85. It counts as in vivo. As to conditions: A = compound I72, B = cyetpyrafen; potted-seedling spraying; 72 hours. The method, then: Test target: adult Tetranychus urticae Koch, a sensitive strain reared indoors.
Preparation of the pesticide solution: according to different test requirements, the test samples were accurately weighed respectively with an electronic analytical balance. The technical pesticides were dissolved in acetone, and then diluted with 0.1% Tween 80 water into a series of pesticide solutions with a certain concentration gradient according to the experimental design dosage.
Experimental method: the activity of the mixture against the adult Tetranychus urticae Koch was determined by adopting the potted-seedling spraying method. First, the adult Tetranychus urticae Koch of uniform size were transferred onto the leaves of kidney bean seedlings at the stage when the first pair of true leaves was fully expanded. After the adult mites had stabilized, the base number was counted. Then, the uniform spraying was performed with the pesticide solution in the order from low to high dose according to the experimental design, with 1.5 mL for each seedling and 3 replicates for each treatment. […]
The treated test materials were placed in an observation room, and the temperature, humidity and illumination of the observation room could be adjusted as needed. […] Then, the co-toxicity coefficient of each ratio was calculated using the Sun Y-P method to evaluate the mixing effect (the same as in Example 1).

On to `CCn1nc(C)cc1/C(OC(=O)C(C)(C)C)=C(/C#N)c1ccc(C(C)(C)C)cc1` [cyetpyrafen], for which the LC50 came to 0.6118 µg/mL.
